We go through four compounds from patent publication US20210341378A1, “HIGH-CONTENT IMAGING OF MICROFLUIDIC DEVICES” (priority 2019, published 2021).

The subject of data set [1] is Kupffer cells. As to the kind of experiment: Kupffer cell count (CD68-positive cells), human Liver-Chip. It counts as cell-based. The note with it: human quadruple-cell chip. How it is done:
Microfluidic devices seeded with liver cells and static sandwich plate cultures were fixed with 4% paraformaldehyde for 15 minutes at room temperature, washed with PBS, and permeabilized (saponin 1% with 10% serum in PBS). Blocking and incubation with the primary antibodies (overnight in PBS containing 1% BSA or PBS containing 10% serum and 1% BSA) was followed by a two-hour incubation with secondary antibodies (Cell Signaling, Danvers, Mass., USA) in the same blocking buffer. Immunostaining was performed with specific primary antibodies (anti-MRP2, anti-stabilin-1, anti-BSEP, anti-α-SMA, anti-CD68; Abcam, Cambridge, Mass., USA) and images were acquired with either an Olympus fluorescence microscope (IX83) or Zeiss confocal microscope (AxiovertZ1 LSM880).
The number of CD68- or α-SMA-positive cells in the vascular channel in each group was counted in each field of view ([…]) and quantified.

Data set [2] relates to microfluidic devices seeded with human liver cells. The data set can be described thus: Cytokine release (IL-6, MCP-1, IP-10) from vascular channel, human Liver-Chip. Format: cell-based. The following applies: human quadruple-cell chip. The protocol:
Cytokines: Release of IL-6, MCP-1, and IP-10 from the vascular channel was quantified using U-PLEX biomarker human assays (Meso Scale Diagnostics, Rockville, Md., USA) and the assays were performed according to the protocol provided by the vendor.

Data set [3] relates to rats. As to the kind of experiment: Repeat-dose toxicity studies in rats. Format: in vivo. The following applies: rat study of the cFMS/FLT3 inhibitor. The protocol:
(§1) JNJ-1, prepared in purified water, was administered once daily for 14 days to 5 male and 5 female rats at doses of 5, 25, and 125 mg/kg. In a separate study, JNJ-1, also in purified water, was administered once daily for 4 weeks to 5 male and 5 female dogs at 0 or 40 mg/kg/day, and to 3 males and 3 female dogs at 2 or 10 mg/kg/day. Mortality, clinical observations, body weight, food consumption, clinical pathology, gross necropsy and microscopic examination of selected tissues, and toxicokinetics were evaluated. Rats or dogs were fasted overnight prior to blood collection for measurement of clinical pathology parameters (including AST and ALT) at the end of 14 days (rats) or 4 weeks (dogs) of dosing. Histology slides (hematoxylin and eosin staining and Mason's Trichrome staining) of the liver tissues were prepared and evaluated microscopically. The quantification of JNJ-1 was conducted using a qualified liquid chromatographic-triple quadrupole mass spectrometric (LC-MS/MS) procedure.
Regarding histology procedures, the liver was sampled. Briefly, 5 serial sections were prepared. One was stained with hematoxylin and eosin (H&E) kit. The 4 others were submitted to histochemical and immunohistochemical stains. Collagen was detected with the Van Gieson kit (Merck, Darmstadt, Germany), and reticulin, with the Reticulum kit (Sigma-Aldrich). […]

The subject of data set [4] is dogs. As to the kind of experiment: Repeat-dose toxicity studies in dogs. Format: in vivo. The note with it: dog study of the cFMS/FLT3 inhibitor. How it is done:
as §1, with “Rats or dogs were fasted overnight prior to blood collection for measurement of clinical pathology parameters (including AST and ALT) at the end of 14 days (rats) or 4 weeks (dogs) of dosing.” left out
JNJ-3 (in 20% hydroxypropyl-β-cyclodextrin) was administered once daily for 14 days to 3 male beagle dogs per group at doses of 15 and 65 mg/kg. Mortality, clinical observations, body weight, food consumption, clinical pathology, gross necropsy and microscopic examination of selected tissues, and toxicokinetics were evaluated. […] Histology slides (hematoxylin and eosin staining and Mason's Trichrome staining) of the liver tissues were prepared and evaluated microscopically. […]

The subject of data set [5] is microfluidic devices seeded with human liver cells. As to the kind of experiment: Albumin secretion (ELISA), human Liver-Chip. Format: cell-based. The following applies: APAP 7 days, quadruple-cell human chip. The text has this:
Prior to cell seeding, microfluidic devices, in this case S-I Chips (Emulate, Inc. Boston, Mass., USA), were functionalized using Emulate's proprietary protocols and reagents (ER™), including those described herein. After surface functionalization, both channels of the microfluidic device were coated with species-specific extracellular matrices (ECM). For the human bound microfluidic device, a mixture of collagen type I (Corning, Corning, N.Y., USA) and fibronectin, e.g. bovine, (Gibco) was used; for the rat bound microfluidic devices a mixture of collagen type IV, e.g. human placenta, (Sigma-Aldrich, St. Louis, Mo., USA) and fibronectin (Gibco) was used; for the dog bound microfluidic devices a mixture of collagen I (Corning), collagen type IV (Sigma-Aldrich), and fibronectin (Gibco) was used. […] For the dual-cell culture model (hepatocytes and endothelial cells), the LSECs were seeded at a concentration of 2-4 million cells/mL in the lower vascular channel. […] After cell seeding, the upper channel of the microfluidic device was maintained in William's E Medium (WEM) containing Glutamax (Gibco), ITS+ (Corning), dexamethasone (Sigma-Aldrich), ascorbic acid (Sigma-Aldrich), fetal bovine serum (FBS) (Sigma-Aldrich), and Penicillin/Streptomycin (Sigma-Aldrich). The vascular channel of the microfluidic device was maintained with species-specific endothelial media (Emulate, Inc.). Two days after seeding, the microfluidic devices were connected to the Human Emulation System™ (Emulate, Inc.), as described in part herein, and both of the microfluidic device channels were perfused at 30 μL/hr to provide a continuous supply of fresh media for the duration of the experiments. Albumin secretion from the upper channel was quantified using ELISA kits for human, rat, and dog models effluent samples (human and rat: Abcam; dog: Immunology Consultants Laboratory, Inc., Portland, Oreg., USA) and the assays were performed according to the protocol provided by each vendor.
Background: In an ELISA, binding on a coated surface is turned into a signal by an enzyme label.

The test system is the same in data set [6]. As to the kind of experiment: APAP metabolite quantification by LC-MS, human Liver-Chip. The note with it: daily 3 mM for 20 days, quadruple-cell human chip. It counts as in vitro ADME. The text has this:
After APAP exposure to microfluidic devices seeded with human liver cells, effluent metabolite levels were quantified using LC-MS analysis. […] APAP-Glucuronide (APAP-Glu), the primary metabolite of APAP, was not quantified using a standard curve. Rather, the LC-MS peak area of APAP-Glu was reported corresponding to each sample.

Data set [7] relates to microfluidic devices seeded with liver cells (hepatocytes and LSECs). As to the kind of experiment: High-content confocal imaging of Liver-Chips treated with staurosporine. Format: cell-based, human. The following applies: 10 μM, six hours of exposure. How it is done: Microfluidic devices were obtained from Emulate Inc. (USA) and are illustrated in FIG. 1A. The channels of the microfluidic devices were coated with a proprietary mixture of extracellular matrix and were incubated overnight at 37° C. Primary human cryopreserved hepatocytes sourced from ThermoFisher, as one example, were seeded in the top channel at a density of 3.5×10^6 cells/mL, and were left to form an attached monolayer at 37° C. in a humidified incubator with a 95%/5% ratio of air to CO2.
Twenty-four hours after seeding, the hepatocyte monolayer was overlaid with Matrigel Matrix sourced from Corning, USA. Primary human cryopreserved liver sinusoidal endothelial cells, also known as LSECs, were seeded on the bottom channel of the microfluidic device at a density of 2 to 4×10^6 cells/mL in endothelial medium, also known as CSC medium or Base LSEC Culture Medium; CSC basal Medium plus Culture-Boost (2%), Cell Systems, and Pen/Strep (1%), Sigma. In some embodiments, endothelial cells are cultured in Complete LSEC Culture Medium, Base LSEC Culture Medium plus 10% FBS. […]
The effects of agents, such as staurosporine on cell phenotype was evaluated. […] The protocol was chosen as it was analogous to how the compound has been evaluated in vivo. […]

The subject of data set [8] is microfluidic devices seeded with rat liver cells. The data set can be described thus: Albumin secretion (ELISA), rat Liver-Chip. It counts as cell-based. The note with it: 168 h; dual-cell rat chips, daily administration 1-100 μM for 7 days; read-out: IC50 of decrease in albumin secretion. The text has this:
Prior to cell seeding, microfluidic devices, in this case S-I Chips (Emulate, Inc. Boston, Mass., USA), were functionalized using Emulate's proprietary protocols and reagents (ER™), including those described herein. After surface functionalization, both channels of the microfluidic device were coated with species-specific extracellular matrices (ECM). For the human bound microfluidic device, a mixture of collagen type I (Corning, Corning, N.Y., USA) and fibronectin, e.g. bovine, (Gibco) was used; for the rat bound microfluidic devices a mixture of collagen type IV, e.g. human placenta, (Sigma-Aldrich, St. Louis, Mo., USA) and fibronectin (Gibco) was used; for the dog bound microfluidic devices a mixture of collagen I (Corning), collagen type IV (Sigma-Aldrich), and fibronectin (Gibco) was used. […] For the dual-cell culture model (hepatocytes and endothelial cells), the LSECs were seeded at a concentration of 2-4 million cells/mL in the lower vascular channel. […] Albumin secretion from the upper channel was quantified using ELISA kits for human, rat, and dog models effluent samples (human and rat: Abcam; dog: Immunology Consultants Laboratory, Inc., Portland, Oreg., USA) and the assays were performed according to the protocol provided by each vendor.

In data set [9] the target is T1, bile salt export pump (BSEP) (Homo sapiens, UniProt O95342).
T1 construct: Primary rat, dog or human hepatocytes were cultured in the upper parenchymal channel; endogenous in cells; host or cells: primary human hepatocytes co-cultured with LSECs in a microfluidic Liver-Chip
The data set can be described thus: CLF efflux into bile canaliculi (BSEP activity), human Liver-Chip. The note with it: 30 μM, co-treatment with CLF. Format: cell-based.
Protocol: Each staining solution was prepared in blank medium or compound dosing medium and added to the upper channel, incubated for 15 minutes at 37° C., and washed three times with medium. The stained microfluidic devices were imaged using a specific filter, and were de-blurred with Olympus cellSens software. Using ImageJ-Fiji, the fluorescent channel images were histogram adjusted to remove background, followed by fluorescence quantification using the Integrated Density calculation function.
Both a brightfield and a fluorescence image was taken from each field of view. […] CLF-labeled regions that most likely to corresponded to bile canaliculi were automatically identified based on geometric criteria and retained only if they co-localized with a bile canaliculi signal in channel 1. […] These criteria were determined empirically using a small test set of images and then applied to images for the analysis. […] The data for treated and control samples were quantified by computing the area percentage of CLF-labeled bile canaliculi within each field of view (FOV).

For data set [10], the system named is BSEP. As to the kind of experiment: BSEP protein area and gene expression, human Liver-Chip. Format: cell-based. The note with it: 30 μM.
Protocol: In one embodiment, gene expression levels were analyzed using 2-step PCR. […] Relative gene expression levels were calculated using ddCt method.
The fluorescent channel images were first de-blurred with Olympus cellSens software. Using ImageJ, they were then histogram adjusted to remove background, adaptive thresholded to extract fluorescent regions (a plugin developed by Qingzong Tseng using the adaptive threshold method of the OpenCV library), and analyzed using the built-in 3D Object Counter function with an area cutoff value to remove noise.
Data set [11] has as its system 3D human spheroid hepatic cultures. The following applies: fold higher than the human Liver-Chip IC50; cited from earlier work.

T1 sequence (O95342 whole entry): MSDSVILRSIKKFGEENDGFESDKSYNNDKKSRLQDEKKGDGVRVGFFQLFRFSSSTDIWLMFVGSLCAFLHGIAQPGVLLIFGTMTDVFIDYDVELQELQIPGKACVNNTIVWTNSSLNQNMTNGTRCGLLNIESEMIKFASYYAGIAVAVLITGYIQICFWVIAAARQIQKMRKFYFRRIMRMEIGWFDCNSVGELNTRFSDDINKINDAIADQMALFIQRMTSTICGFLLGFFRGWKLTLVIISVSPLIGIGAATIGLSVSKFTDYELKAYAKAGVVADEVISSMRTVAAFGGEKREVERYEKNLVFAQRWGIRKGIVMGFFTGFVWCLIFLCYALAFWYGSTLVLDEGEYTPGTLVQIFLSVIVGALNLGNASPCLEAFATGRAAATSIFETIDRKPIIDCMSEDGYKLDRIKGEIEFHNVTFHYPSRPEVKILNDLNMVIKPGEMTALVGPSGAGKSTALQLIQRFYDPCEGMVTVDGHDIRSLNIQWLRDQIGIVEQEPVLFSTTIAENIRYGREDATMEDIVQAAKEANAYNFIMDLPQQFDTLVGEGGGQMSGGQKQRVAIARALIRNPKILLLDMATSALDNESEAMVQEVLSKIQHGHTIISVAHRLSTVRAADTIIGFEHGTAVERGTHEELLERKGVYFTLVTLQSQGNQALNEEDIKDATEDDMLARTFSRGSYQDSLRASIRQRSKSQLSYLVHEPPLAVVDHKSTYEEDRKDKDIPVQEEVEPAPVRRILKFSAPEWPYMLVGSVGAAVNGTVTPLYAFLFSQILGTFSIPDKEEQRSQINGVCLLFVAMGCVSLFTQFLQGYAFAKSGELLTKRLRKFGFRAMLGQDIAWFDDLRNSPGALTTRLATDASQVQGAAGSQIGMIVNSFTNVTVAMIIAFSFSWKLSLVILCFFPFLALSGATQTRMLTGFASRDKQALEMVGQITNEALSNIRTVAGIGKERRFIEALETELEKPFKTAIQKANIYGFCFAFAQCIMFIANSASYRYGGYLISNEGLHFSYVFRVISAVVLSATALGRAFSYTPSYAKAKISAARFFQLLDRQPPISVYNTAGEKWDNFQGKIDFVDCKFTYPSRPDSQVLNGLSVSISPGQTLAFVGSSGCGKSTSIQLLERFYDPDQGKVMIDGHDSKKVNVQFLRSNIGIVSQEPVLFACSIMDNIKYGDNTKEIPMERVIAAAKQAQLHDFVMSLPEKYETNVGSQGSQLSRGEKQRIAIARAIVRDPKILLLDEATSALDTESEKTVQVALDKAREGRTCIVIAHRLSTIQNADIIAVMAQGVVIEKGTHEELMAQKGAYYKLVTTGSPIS

On to `CN(C)CC(=O)N1CCC(c2ccc(NC(=O)c3nc(C#N)c[nH]3)c(C3=CCCCC3)c2)CC1` [a JNJ compound], for which the “CD68-positive cells (Kupffer cell depletion)” value in [1] is reported as “decreased number”. For the same compound, in [2], the “interleukin 6 (IL-6) in the vascular channel” value is recorded as “dose-dependent decrease” and the “monocyte chemoattractant protein-1 (MCP-1) in the vascular channel” value is listed as “dose-dependent decrease”. Moreover, in data set [3], the “microscopic changes in the liver” value is reported as “without any correlative microscopic changes” and the transaminases entry is “Dose-related elevation”. For the same compound, in data set [4], the “microscopic changes in the liver” value is “without any correlative microscopic changes” and the transaminases result is “Dose-related elevation”.
Regarding `CC(=O)Nc1ccc(O)cc1` [APAP, acetaminophen], the albumin synthesis result in data set [5] is listed as “decreased”. Further, the “APAP glucuronide in parenchymal and vascular channels” value in data set [6] was “significant amounts”.
Take `CN[C@@H]1C[C@H]2O[C@@](C)([C@@H]1OC)n1c3ccccc3c3c4c(c5c6ccccc6n2c5c31)C(=O)NC4` [Staurosporine, staurosporine]: in data set [7], the LSECs entry is given as “complete loss” and the “apoptotic marker (CC3)” value is recorded as “marked increases”.
Regarding `COc1ccccc1Oc1c(NS(=O)(=O)c2ccc(C(C)(C)C)cc2)nc(-c2ncccn2)nc1OCCO` [bosentan], the IC50 – broadly, the concentration needed to halve the response being measured – in data set [8] is more than 100 µM. Moreover, in data set [9], the “CLF in human hepatocytes” value is “intracellular accumulation”. Also, in data set [10], the “BSEP mRNA levels” value is reported as “decreases” and the BSEP protein levels result was “decreases”. Further, the “IC50 in 3D human spheroid hepatic cultures relative to human chip” value in [11] is on record as “more than 10 fold”.
